10 compounds from paper PMC13198257, “An aerosolized dual-action autotaxin inhibitor-PPARγ agonist for the treatment of pulmonary fibrosis” (Cell Reports Medicine, 2026) can be followed below.

SMILES strings stand for the structures. “Also recorded” adds a separate entry of the source.

By IC50 is commonly meant the concentration that inhibits the measured activity by half. Low values mean greater potency in that assay, high ones weaker potency in that assay. What is called microsomal CLint is a measure of how fast metabolising enzymes remove a compound, apart from limits set by blood flow. High values mean rapid turnover, low ones slow turnover. In general, half-life refers to the time in which the quantity being followed falls by half. In general, CC50 refers to the concentration that lowers cell viability or growth by half. Low readings indicate harm at low concentration, high ones better tolerance by the cells. The term EC50 denotes the concentration at which the effect is half-maximal. A lower EC50 goes with higher potency in that assay.

Series [1] has as its target T1, ATX (Homo sapiens, UniProt Q13822).
T1 construct: purchased Sino Biological 11308-H07H
Briefly: Amplex Red assay: ATX inhibitory activity in vitro. It counts as biochemical. Conditions: for IC50: Amplex Red assay; for IC50 / Inhibition of ATX enzymatic activity: in vitro; for ATX activity, fold lower than that of TGZ: ratio of IC50; for % inhibition of ATX: at 100 μΜ, Table S1. On the procedure: (§1) ATX inhibitory activity in vitro of examined compounds was assessed with the Amplex Red assay,[32]^,[35]^,[36] as recently published in detail.[37] The assay was done in Amplex Red Assay buffer (Tris 50 mM, CaCl2 5 mM, pH 8). Briefly, 50 μL of increasing concentrations of each compound were placed in separate wells of a black 96-well plate. […] 50 μL of the LPC-containing assay buffer (200 μM) were added to the wells and incubated for 30 min at 37°C to allow the enzyme to initially interact with its substrate. 50 μL of the detection mix (Amplex Red 200 μM, choline oxidase 0.4 U/mL, horseradish peroxidase 4 U/mL) were added to the plate wells. Fluorescence was measured in a Tecan M200 Fluorimeter using excitation at 530 nm and reading at 590 nm, every 5 min for 30 min. The velocity of the reaction and the remaining ATX activity were calculated at the linear phase of the reaction. Dose-response inhibition graphs were plotted with GraphPad Software.

Series [2] is described as follows: Mouse metabolic clearance and half-life in vitro.
Series [3] concerns the target hERG (Homo sapiens, UniProt Q12809). Briefly: hERG inhibition. It counts as biochemical. On the technique in general: The hERG channel carries a current that helps repolarise heart muscle cells.
Series [4] can be described thus: in vitro. Conditions: mouse.
Series [5] is described as follows: AMP membrane permeability. It is filed as in vitro ADME. Conditions: 10 μΜ.
Series [6] in a line: Cytotoxicity in HepG2 hepatocytes. It counts as cell-based. Conditions: human, HepG2 cells.
Series [7] has as its target T1, ATX. Briefly: Mode of ATX inhibition, Lineweaver-Burk plots (various LPC concentrations). It is filed as biochemical. Here is the method: To determine the mode of inhibition of ATX, various concentrations of TGZ, compound 5 and EL244 were tested against various LPC concentrations. Specifically, TGZ was tested against 6.25, 12.5, 25, 50 and 100 μM LPC, compound 5 was tested against 3.125, 6.25, 12.5, 25, 50 and 100 μM LPC, while EL244 was tested against 25, 50, 100 and 150 μM LPC. Lineweaver–Burk graphs depicting the reciprocal of velocity (1/V) against the reciprocal of substrate concentration (1/S) were plotted with GraphPad Software.

The target in series [8] is T2, PPARγ (Homo sapiens, UniProt P37231).
T2 construct: expressed in transfected cells; host or cells: HEK293T
T2 sequence (P37231 238-503 limits assumed): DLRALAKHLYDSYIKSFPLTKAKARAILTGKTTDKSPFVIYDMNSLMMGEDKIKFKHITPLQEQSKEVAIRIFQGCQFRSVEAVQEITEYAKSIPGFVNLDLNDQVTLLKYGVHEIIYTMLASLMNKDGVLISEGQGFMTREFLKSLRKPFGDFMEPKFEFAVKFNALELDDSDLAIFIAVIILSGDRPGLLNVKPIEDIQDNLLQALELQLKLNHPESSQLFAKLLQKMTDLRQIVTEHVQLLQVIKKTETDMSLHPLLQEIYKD
Briefly: PPARγ Gal4 hybrid reporter gene assay. Particulars: Gal4-hybrid reporter, HEK293T cells. It counts as cell-based. On the procedure: All well-established assays were performed following straightforward methodology.[49] Plasmids pFA-CMV-hPPARα-LBD, pFA-CMV-hPPARγ-LBD and pFA-CMV-hPPARδ-LBD code for the hinge region and ligand binding domain of the canonical isoform of the respective nuclear receptor and were used to express the Gal4 hybrid receptors. pFR-Luc (Stratagene, La Jolla, CA, USA) and pRL-SV40 (Promega, Madison, WI, USA) were used as Gal4-responsive reporter and as internal control in the hybrid reporter gene assays, respectively. HEK293T cells were seeded in 96-well plates (3×10^4 cells/well). Before transfection, the medium was changed to Opti-MEM without supplements, and transient transfection with the plasmids pFR-Luc, pRL-SV40, and one pFA-CMV-NR-LBD clone was carried out using Lipofectamine LTX reagent (Invitrogen, Carlsbad, CA, USA) according to the manufacturer’s protocol. […] Normalisation of transfection efficiency and cell growth was performed by dividing firefly luminescence by Renilla luminescence and multiplying the result by 1000, yielding relative light units (RLU). Fold activation was obtained by dividing the mean RLU of the test compound by the mean RLU of the untreated control.

In series [9] the test system is choline oxidase and horseradish peroxidase. Briefly: Interference with the 2nd and 3rd reaction of the Amplex Red assay. It is filed as biochemical. On the procedure:
as §1
Figure S3. Kinetic analysis of ATX inhibition. Related to Figures 3 and 4
(B) Kinetics for the second (oxidation of choline catalysed by choline oxidase) and third reaction (the conversion of the
Amplex substrate to the fluorescent resorufin catalysed by horseradish peroxidase, HRP) of the Amplex Red Lyso-
phospholipase D assay for representative compounds (TGZ, 4, 5 and EL244). The first reaction includes the conversion of
LPC to LPA catalysed by ATX.
Kinetic graphs are indicative of three technical replicates. […]

Sequence of hERG (Q12809 whole entry): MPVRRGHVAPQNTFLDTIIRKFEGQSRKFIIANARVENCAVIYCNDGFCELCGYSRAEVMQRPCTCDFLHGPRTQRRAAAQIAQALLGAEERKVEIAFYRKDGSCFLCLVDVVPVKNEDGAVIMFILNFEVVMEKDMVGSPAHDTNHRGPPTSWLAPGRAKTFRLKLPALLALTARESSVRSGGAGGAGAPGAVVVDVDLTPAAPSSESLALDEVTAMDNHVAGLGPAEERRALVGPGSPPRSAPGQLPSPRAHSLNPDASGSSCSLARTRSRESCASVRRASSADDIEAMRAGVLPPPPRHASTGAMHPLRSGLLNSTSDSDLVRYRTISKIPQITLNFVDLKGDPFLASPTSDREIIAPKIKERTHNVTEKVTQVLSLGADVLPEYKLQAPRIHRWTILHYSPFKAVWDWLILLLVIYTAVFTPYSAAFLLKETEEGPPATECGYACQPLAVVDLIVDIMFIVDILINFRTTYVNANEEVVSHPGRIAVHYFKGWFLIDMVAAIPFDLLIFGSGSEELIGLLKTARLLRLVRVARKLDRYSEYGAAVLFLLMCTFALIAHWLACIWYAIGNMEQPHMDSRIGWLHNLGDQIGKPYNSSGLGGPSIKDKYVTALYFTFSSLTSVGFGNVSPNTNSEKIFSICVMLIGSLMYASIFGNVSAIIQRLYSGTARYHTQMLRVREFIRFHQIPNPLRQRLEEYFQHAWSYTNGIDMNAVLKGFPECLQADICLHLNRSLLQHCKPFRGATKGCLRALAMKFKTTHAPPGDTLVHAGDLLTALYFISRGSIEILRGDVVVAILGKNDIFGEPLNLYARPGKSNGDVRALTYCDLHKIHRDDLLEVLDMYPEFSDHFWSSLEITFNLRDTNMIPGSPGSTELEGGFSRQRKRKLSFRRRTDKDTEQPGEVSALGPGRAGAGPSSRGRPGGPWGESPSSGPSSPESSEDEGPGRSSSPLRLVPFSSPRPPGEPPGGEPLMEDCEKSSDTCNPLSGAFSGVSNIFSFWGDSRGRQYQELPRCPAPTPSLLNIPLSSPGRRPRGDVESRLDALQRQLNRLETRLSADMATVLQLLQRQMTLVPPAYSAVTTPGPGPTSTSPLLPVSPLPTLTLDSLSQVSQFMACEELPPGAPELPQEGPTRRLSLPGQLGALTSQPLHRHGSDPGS

Take `CN(CCOc1ccc(CC2SC(=O)NC2=O)cc1)c1ccccn1` (stereo not drawn) [RGZ, rosiglitazone, reference compound]: in series [1], the half-inhibitory concentration (IC50) was more than 100000 nM and the “Inhibition of ATX enzymatic activity” value is given as “not to inhibit ATX enzymatic activity”.
As for `COC(=O)c1ccc2c(c1)NC(=O)/C2=C(\Nc1ccc(N(C)C(=O)CN2CCN(C)CC2)cc1)c1ccccc1` [Nintedanib, reference compound], the microsomal CLint at 0.1 μM in [2] is 122 µL/min/mg. Besides, in [3], half-maximal inhibition (IC50) required 4000 nM. In series [4], this compound displayed a half-life at 0.1 μM of 58 min. In addition, in [5], the AMP was determined as 7.8e-07 cm/s. The same compound registered a cytotoxic concentration (CC50) in series [6] of 4000 nM.
In [2], `O=C(CCN1CCN(C(=O)OCc2cc(Cl)cc(Cl)c2)CC1)c1ccc2[nH]c(=O)oc2c1` [PF-8380, reference compound] came in with a half-life at 0.1 μM of less than 10 min and an intrinsic clearance (microsomal CLint) at 0.1 μM of 766 µL/min/mg. Further, the IC50 in series [3] worked out at 500 nM. The compound also gave a CC50 in series [6] of more than 100000 nM.
As to `CCc1ccc(CCOc2ccc(CC3SC(=O)NC3=O)cc2)nc1` (stereo not drawn) [PGZ, pioglitazone, reference compound], in series [1], the IC50 is more than 100000 nM and the “Inhibition of ATX enzymatic activity” value is recorded as “not to inhibit ATX enzymatic activity”.
As to `N#Cc1sc(NCCOc2ccc(/C=C3/SC(=O)NC3=O)cc2)nc1-c1ccc(F)cc1` [Compound 1, (E)-2-((2-(4-((2,4-dioxothiazolidin-5-ylidene)methyl)phenoxy)ethyl)amino)-4-(4-fluorophenyl)thiazole-5-carbonitrile], in [1], the concentration for half-maximal inhibition (IC50) was found to be 2000 nM and the “ATX activity, fold lower than that of TGZ” value is on record as 4 fold.
In the case of `Cc1c(C)c2c(c(C)c1O)CCC(C)(COc1ccc(CC3SC(=O)NC3=O)cc1)O2` (stereo not drawn) [TGZ, troglitazone, reference compound], the “Mode of ATX inhibition” value in [7] is “non-competitive”. Also, in series [6], the CC50 worked out at 34000 nM. Further, in series [1], the 50% inhibitory concentration (IC50) was 530 nM and the “% inhibition of ATX” value was “fully inhibited ATX activity”. Further, the “% inhibition of ATX” value in [1] (listed as 1467) was 99.17%.
Take `O=C1NC(=O)/C(=C\c2ccc(OCCN3CCN(C(=O)OCc4cc(Cl)cc(Cl)c4)CC3)cc2)S1` [Compound 2, 3,5-Dichlorobenzyl (E)-4-(2-(4-((2,4-dioxothiazolidin-5-ylidene)methyl)phenoxy)ethyl)piperazine-1-carboxylate]: in [1], half-maximal inhibition (IC50) required 2000 nM and the “ATX activity, fold lower than that of TGZ” value is given as 4 fold.
On to `COc1cc(-c2ccc(N=Nc3ccc4c(S(=O)(=O)O)cc(S(=O)(=O)O)c(N)c4c3O)c(OC)c2)ccc1N=Nc1ccc2c(S(=O)(=O)O)cc(S(=O)(=O)O)c(N)c2c1O` [CSB, Chicago Sky Blue 6B, reference compound], for which, in [1], the IC50 turned out to be 1600 nM and the “% inhibition of ATX” value was “fully inhibited ATX activity”. Moreover, the “% inhibition of ATX” value in [1] (listed as 425) was found to be 99.21%.
With `Cc1c(C)c2c(c(C)c1O)CCC(C)(COc1ccc(/C=C3/SC(=O)N(Cc4ccc(F)cc4)C3=O)cc1)O2` (stereo not drawn) [Compound 3, (E)-3-(4-fluorobenzyl)-5-(4-((6-hydroxy-2,5,7,8-tetramethylchroman-2-yl)methoxy)benzylidene)thiazolidine-2,4-dione], in [1], the IC50 was determined as 17800 nM.
With `N#Cc1sc(NCCOc2ccc(CC3SC(=O)NC3=O)cc2)nc1-c1ccc(F)cc1` (stereo not drawn) [Compound 4, 2-((2-(4-((2,4-dioxothiazolidin-5-yl)methyl)phenoxy)ethyl)amino)-4-(4-fluorophenyl)thiazole-5-carbonitrile], in series [8], the response was half-maximal at 1000 nM (EC50) and the “PPARγ fold activ. (max. activation)” value is on record as 5.6 ± 0.5 fold. Further, the 50% inhibitory concentration (IC50) in series [1] was 940 nM. Moreover, in [9], the “Interference on the 2nd and 3rd steps of the Amplex Red assay” value is “Minimal interference; also recorded: not involved at all in the second and third reaction”.
